# Counter-ions that a name gives are not always drawn. Active and inactive are the calls of the source. The rule behind the calls is not given here.
# Columns and labels:
# [1] = Binding affinity to Fe3+ assessed as formation of Fe3+-compound complex in presence of FeCl3 by HRESIMS method
# [2] = Binding affinity to Fe3+ assessed as formation of Fe3+-compound complex at 100 ug/disk by CAS agar disk diffusion method
# [3] = Binding affinity to Fe3+ assessed as formation of Fe3+-compound complex incubated for 22 hrs by liquid CAS assay
# [4] = Binding affinity to Fe3+ assessed as formation of Fe3+-compound complex stoichiometry ratio of 1:1 by HRESIMS method
# [5] = Binding affinity to Fe3+ assessed as formation of Fe3+-compound complex stoichiometry ratio of 2:1 by HRESIMS method
# [6] = Binding affinity to Fe3+ assessed as formation of Fe3+-compound complex stoichiometry ratio of 3:1 by HRESIMS method
Structure (SMILES),Activity [1],Activity [2],EC50 [3],Activity [4],Activity [5],Activity [6]
C/C(=C\C(=O)N(O)CCC[C@@H]1NC(=O)[C@H](CCCN(O)C(=O)C[C@](C)(O)CCO[C@@H]2O[C@H](CO)[C@@H](O)[C@H](O)[C@@H]2O)NC1=O)CCO,Active,Active,–,–,–,–
C/C(=C\C(=O)N(O)CCC[C@@H]1NC(=O)[C@H](CCCN(O)C(=O)/C=C(\C)CCO[C@@H]2O[C@H](CO)[C@@H](O)[C@H](O)[C@@H]2O)NC1=O)CCOC(=O)[C@H](CCCN(O)C(=O)/C=C(\C)CCO[C@@H]1O[C@H](CO)[C@@H](O)[C@H](O)[C@@H]1O)[N+](C)(C)[O-],Active,Active,15.7 µM,–,–,–
CO[C@H]1[C@H](O)[C@H](O)[C@H](OCC/C(C)=C/C(=O)N(O)CCC[C@@H]2NC(=O)[C@H](CCCN(O)C(=O)/C=C(\C)CCO)NC2=O)O[C@@H]1CO,Active,Active,–,–,–,–
C[C@@](O)(CCO)CC(=O)N(O)CCC[C@@H]1NC(=O)[C@H](CCCN(O)C(=O)C[C@](C)(O)CCO)NC1=O,Active,Active,–,–,–,–
C/C(=C\C(=O)N(O)CCC[C@@H]1NC(=O)[C@H](CCCN(O)C(=O)/C=C(\C)CCO[C@@H]2O[C@H](CO)[C@@H](O)[C@H](O)[C@@H]2O)NC1=O)CCO,Active,Active,–,–,–,–
CC(=O)N(O)CCCCCNC(=O)CCC(=O)N(O)CCCCCNC(=O)CCC(=O)N(O)CCCCCN [DEFEROXAMINE MESYLATE],–,–,20 µM,–,–,–
C/C(=C\C(=O)N(O)CCC[C@@H](N)C(=O)O)CCO,–,inactive,–,–,–,–
C/C(=C\C(=O)N(O)CCC[C@@H]1NC(=O)[C@H](CCCN(O)C(=O)/C=C(\C)CCO)NC1=O)CCO,Active,Active,13 µM,–,–,–
C/C(=C\C(=O)NCCC[C@@H]1NC(=O)[C@H](CCCNC(=O)/C=C(\C)CCO)NC1=O)CCO,inactive,inactive,–,–,–,–
CO[C@H]1[C@H](O)[C@H](O)[C@H](OCC/C(C)=C/C(=O)N(O)CCC[C@@H](C(=O)O)N(C)C)O[C@@H]1CO,–,inactive,–,Active,Active,inactive
C/C(=C\C(=O)N(O)CCC[C@@H]1NC(=O)[C@H](CCCN(O)C(=O)C[C@](C)(O)CCO)NC1=O)CCO,Active,Active,–,–,–,–
CO[C@H]1[C@H](O)[C@H](O)[C@H](OCC/C(C)=C/C(=O)N(O)CCC[C@@H](C(=O)O)[N+](C)(C)[O-])O[C@@H]1CO,–,inactive,–,Active,Active,inactive
CO[C@H]1[C@H](O)[C@H](O)[C@H](OCC[C@@](C)(O)CC(=O)N(O)CCC[C@@H]2NC(=O)[C@H](CCCN(O)C(=O)/C=C(\C)CCO)NC2=O)O[C@@H]1CO,Active,Active,–,–,–,–
C/C(=C\C(=O)N(O)CCC[C@@H]1NC(=O)[C@H](CCC[N+](=O)[O-])NC1=O)CCO,–,inactive,–,Active,Active,inactive

# Source: ChEMBL document CHEMBL4602684, “Siderophores from the Entomopathogenic Fungus Beauveria bassiana” (J Nat Prod, 2020)
